The values that follow come from patent US7179832B2, “Glycogen synthase kinase 3β inhibitor, composition and process for the preparation thereof” (Crystalgenomics, Inc., priority 2003, dated 2007).

The experiment concerns the target GSK-3β (Homo sapiens, UniProt P49841). As to the kind of experiment: Assay for GSK-3β inhibiting activity (32P-ATP, phospho-CREB peptide substrate, filter paper, CPM). In kind it is biochemical. Particulars: for pIC50: GSK-3β inhibiting activity, 100 nM GSK-3β protein, 100 μM phospho-CREB peptide, 100 μM ATP, 30° C. for 1 hour, read-out: IC50. As for the experimental part:
Assay for GSK-3β inhibiting activity
First, PCR (polymerase chain reaction) was carried out using human DNA as a template as well as primers which were designed to correspond to the 3′- and 5′ ends of the polynucleotide coding human GSK-3β gene (Genbank Accession No.: L33801). The BamH1/XhoI fragment of the amplified PCR product thus obtained was inserted into the pGex vector between the BamH1 and XhoI sites, and the vector obtained was transformed into E. coli BL21(DE3). The transformed cells thus obtained was incubated in […] (1% Bacto-trypton, 0.5% yeast extract, 1% NaCl) containing ampicillin ([…]) until the optical density at 600 nm reached about 0.5. The cultured mixture was cooled to 18° C. and isopropyl β-D-thiogalacto-pyranoside (IPTG) was added thereto to a final concentration of 0.5 mM. After 16 hours, the resultant was centrifuged at 10,000×g for 10 min, the collected cells were suspended in a buffer solution (30 mM Tris-HCl (pH 7.5), 100 mM NaCl, 5% glycerol, 2 mM DTT) and the cells were disrupted using Sonic Dismembrator (Fisher, U.S.A.) in a ice bath. The resulting solution was centrifuged at 16,000 rpm for 30 minutes. […] The purified GSK-3β protein was diluted in a buffer solution (20 mM HEPES (pH 7.5), 5% glycerol, 2 mM DTT) to a final concentration of 50 mM NaCl and the resulting solution was subjected to mono S column chromatography (eluent: linear gradient from 0M to 1M NaCl buffer) using mono S column (Pharmacia Biotech, U.S.A.) equilibrated in the same buffer solution to obtain GSK-3β protein.
The reaction was stopped by adding 5 μl of 5% phosphoric acid to 25 μl of the resulting solution. The resulting mixture was centrifuged at 15,000 rpm for 10 min, 20 μl of the supernatant was added dropwise to Whatman p81 filter paper, and then, the resulting filter paper was washed with 0.5% phosphate buffer for 10 min. The filter paper was further washed 3 times and the enzymatic activity was determined by examining the extent of phospho-CREB peptide phosphorylation which is represented by the unit of count per minute (CPM), measured with a β-counter (Packard, USA).
The GSK-3β inhibiting activity was then calculated in accordance with the following equation:
[formula] wherein the blank represents a value obtained without the use of the enzyme and the compound of the present invention, and the control, in the absence of the compound of the present invention.

pIC50: −log10 of the molar value. Where two headings read alike, the source gives them in different places.

Chain of GSK-3β (P49841 whole entry): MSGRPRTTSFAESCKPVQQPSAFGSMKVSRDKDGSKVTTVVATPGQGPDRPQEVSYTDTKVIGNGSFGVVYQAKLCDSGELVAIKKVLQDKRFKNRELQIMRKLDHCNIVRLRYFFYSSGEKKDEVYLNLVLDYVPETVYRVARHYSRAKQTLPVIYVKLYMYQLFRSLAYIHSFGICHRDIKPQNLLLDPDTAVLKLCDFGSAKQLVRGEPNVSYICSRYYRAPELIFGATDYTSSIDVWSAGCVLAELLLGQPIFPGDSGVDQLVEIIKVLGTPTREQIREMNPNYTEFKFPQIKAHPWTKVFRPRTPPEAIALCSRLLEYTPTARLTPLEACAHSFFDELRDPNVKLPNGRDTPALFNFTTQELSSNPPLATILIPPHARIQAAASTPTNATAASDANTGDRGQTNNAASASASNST

In the case of `CS(=O)(=O)Nc1ccc(CCNC(=O)c2ccc(O)c3[nH]c(-c4ccccc4)nc23)cc1` [Compound 64], the negative logarithm of the IC50 (pIC50) was 7.52.
Still for that read-out and setting: in the case of `Cc1ccc(S(=O)(=O)Nc2ccc(CCNC(=O)c3ccc(O)c4[nH]c(-c5ccccc5)nc34)cc2)cc1` [Compound 65] it was 7.22; in that of `O=C(NCCN1CCOCC1)c1ccc(O)c2[nH]c(-c3ccccc3)nc12` [Compound 66], less than 6.00.
In the case of `O=C(NCCc1ccc(N2C(=O)c3ccccc3C2=O)cc1)c1ccc(O)c2[nH]c(-c3ccccc3)nc12` [Compound 67], the negative-log IC50 (pIC50) is 6.80.
Same read-out and setting: the figure for `O=C(NCCNc1ccc([N+](=O)[O-])cn1)c1ccc(O)c2[nH]c(-c3ccccc3)nc12` [Compound 69] is less than 6.00; for `O=C(NCCc1ccccn1)c1ccc(O)c2[nH]c(-c3ccccc3)nc12` [Compound 70] it is less than 6.00; for `O=C(NCCc1ccccc1)c1ccc(O)c2[nH]c(-c3ccc(Cl)cc3)nc12` [Compound 71] it is less than 6.00.
On to `O=C(NCCc1ccc([N+](=O)[O-])cc1)c1ccc(O)c2[nH]c(-c3ccc(Cl)cc3)nc12` [Compound 72], for which the pIC50 was 6.92.
On to `Nc1ccc(CCNC(=O)c2ccc(O)c3[nH]c(-c4ccc(Cl)cc4)nc23)cc1` [Compound 73], for which the negative-log IC50 (pIC50) was less than 6.00.
With `O=C(NCCc1ccc(O)cc1)c1ccc(O)c2[nH]c(-c3ccc(Cl)cc3)nc12` [Compound 74], the negative logarithm of the IC50 (pIC50) is less than 6.00.
`CS(=O)(=O)Nc1ccc(CCNC(=O)c2ccc(O)c3nc(-c4ccc(Cl)cc4)[nH]c23)cc1` [Compound 75]: the pIC50 was 8.05.
On to `Cc1ccc(S(=O)(=O)Nc2ccc(CCNC(=O)c3ccc(O)c4[nH]c(-c5ccc(Cl)cc5)nc34)cc2)cc1` [Compound 76], for which the pIC50 is 7.30.
`COc1ccc(CCNC(=O)c2ccc(O)c3[nH]c(-c4ccc(Cl)cc4)nc23)cc1O` [Compound 77]: the pIC50 is 7.48.
`O=C(NCCN1CCOCC1)c1ccc(O)c2[nH]c(-c3ccc(Cl)cc3)nc12` [Compound 78]: the pIC50 is less than 6.00.
For the molecule `O=C(NCCc1ccc(N2C(=O)c3ccccc3C2=O)cc1)c1ccc(O)c2[nH]c(-c3ccc(Cl)cc3)nc12` [Compound 79], the pIC50 is 6.92.
`CCS(=O)(=O)Nc1ccc(CCNC(=O)c2ccc(O)c3[nH]c(-c4ccc(Cl)cc4)nc23)cc1` [Compound 80]: the pIC50 was 7.15.
For the molecule `O=C(NCCNc1ccc([N+](=O)[O-])cn1)c1ccc(O)c2[nH]c(-c3ccc(Cl)cc3)nc12` [Compound 81], the pIC50 was less than 6.00.
Take `O=C(NCCc1ccccn1)c1ccc(O)c2[nH]c(-c3ccc(Cl)cc3)nc12` [Compound 82]: the pIC50 is less than 6.00.
Take `O=C(NCCc1c[nH]cn1)c1ccc(O)c2[nH]c(-c3ccc(Cl)cc3)nc12` [Compound 83]: the pIC50 is less than 6.00.
Consider `CN1CCN(CC(=O)Nc2ccc(CCNC(=O)c3ccc(O)c4[nH]c(-c5ccc(Cl)cc5)nc34)cc2)CC1` [Compound 86], for which the pIC50 is 6.60.
As for `CCN1CCN(CC(=O)Nc2ccc(CCNC(=O)c3ccc(O)c4[nH]c(-c5ccc(Cl)cc5)nc34)cc2)CC1` [Compound 87], the pIC50 was 6.64.
Consider `CN(C)CC(=O)Nc1ccc(CCNC(=O)c2ccc(O)c3[nH]c(-c4ccc(Cl)cc4)nc23)cc1` [Compound 88], for which the pIC50 was 6.66.
The same measure, in the same setting: the figure for `CCN(CC)CC(=O)Nc1ccc(CCNC(=O)c2ccc(O)c3[nH]c(-c4ccc(Cl)cc4)nc23)cc1` [Compound 89] is 6.49; for `Nc1ccc(CCNC(=O)c2ccc(O)c3[nH]c(-c4ccc(Cl)cc4)nc23)cc1` [Compound 90] it is 6.89.
Take `O=C(CN1CCOCC1)Nc1ccc(CCNC(=O)c2ccc(O)c3[nH]c(-c4ccc(Cl)cc4)nc23)cc1` [Compound 92]: the pIC50 was 7.10.
On the same count and under the same terms, the figure for `CN(C)c1ccc(CCNC(=O)c2ccc(O)c3[nH]c(-c4ccc(Cl)cc4)nc23)cc1` [Compound 93] is less than 6.00; for `O=C(NCCc1ccc(OCCN2CCOCC2)cc1)c1ccc(O)c2[nH]c(-c3ccc(Cl)cc3)nc12` [Compound 94] it is less than 5.30.
On the same count and under the same terms, in the case of `CN1CCN(CCOc2ccc(CCNC(=O)c3ccc(O)c4[nH]c(-c5ccc(Cl)cc5)nc34)cc2)CC1` [Compound 95] it was less than 6.00.
In the case of `O=C(NCCc1ccccc1O)c1ccc(O)c2[nH]c(-c3ccc(Cl)cc3)nc12` [Compound 96], the pIC50 was 7.66.
On the same count and under the same terms, in the case of `COc1ccccc1CCNC(=O)c1ccc(O)c2[nH]c(-c3ccc(Cl)cc3)nc12` [Compound 97] it was 6.77.
As to `O=C(NCCc1cccc(Br)c1)c1ccc(O)c2[nH]c(-c3ccc(Cl)cc3)nc12` [Compound 98], the pIC50 is less than 6.00.
With `O=C(NCCc1ccc([N+](=O)[O-])cc1)c1ccc(O)c2[nH]c(-c3ccc(Cl)cc3Cl)nc12` [Compound 100], the pIC50 is 6.70.
For `COc1cc(CCNC(=O)c2ccc(O)c3[nH]c(-c4ccc(Cl)cc4Cl)nc23)ccc1O` [Compound 101], the negative-log IC50 (pIC50) was less than 6.00.
For `COc1ccc(CCNC(=O)c2ccc(O)c3[nH]c(-c4ccc(Cl)cc4Cl)nc23)cc1O` [Compound 102], the pIC50 is 6.64.
On to `NCCNC(=O)c1ccc(O)c2[nH]c(-c3ccc(Cl)cc3Cl)nc12` [Compound 103], for which the pIC50 is less than 5.30.
On to `O=C(NCCc1ccc(O)cc1)c1ccc(O)c2[nH]c(-c3ccc(Cl)cc3Cl)nc12` [Compound 104], for which the pIC50 is less than 6.00.
As for `Cc1ccc(S(=O)(=O)Nc2ccc(CCNC(=O)c3ccc(O)c4[nH]c(-c5ccc(Cl)cc5Cl)nc34)cc2)cc1` [Compound 105], the pIC50 is 7.30.
For `O=C(NCCc1ccc(N2C(=O)c3ccccc3C2=O)cc1)c1ccc(O)c2[nH]c(-c3ccc(Cl)cc3Cl)nc12` [Compound 107], the pIC50 was 7.30.
Regarding `O=C(NCCN1CCOCC1)c1ccc(O)c2[nH]c(-c3ccc(Cl)cc3Cl)nc12` [Compound 108], the pIC50 was less than 6.00.
Take `CCS(=O)(=O)Nc1ccc(CCNC(=O)c2ccc(O)c3nc(-c4ccc(Cl)cc4Cl)[nH]c23)cc1` [Compound 109]: the IC50 (IC50 (μM)) was 0.03 µM.
For the molecule `O=C(NCCNc1ccc([N+](=O)[O-])cn1)c1ccc(O)c2[nH]c(-c3ccc(Cl)cc3Cl)nc12` [Compound 110], the pIC50 is 6.55.
As for `O=C(NCCc1ccccn1)c1ccc(O)c2[nH]c(-c3ccc(Cl)cc3Cl)nc12` [Compound 111], the pIC50 is less than 6.00.
On the same count and under the same terms, in the case of `CC(=O)Nc1ccc(CCNC(=O)c2ccc(O)c3[nH]c(-c4ccc(Cl)cc4Cl)nc23)cc1` [Compound 112] it was 7.40; in that of `CCCCC(=O)Nc1ccc(CCNC(=O)c2ccc(O)c3[nH]c(-c4ccc(Cl)cc4Cl)nc23)cc1` [Compound 113], 6.72; in that of `CS(=O)(=O)Nc1ccc(CCNC(=O)c2ccc(O)c3[nH]c(-c4ccc(F)cc4)nc23)cc1` [Compound 114], 9.00.
`Cc1ccc(S(=O)(=O)Nc2ccc(CCNC(=O)c3ccc(O)c4nc(-c5ccc(F)cc5)[nH]c34)cc2)cc1` [Compound 115]: the pIC50 is 7.59.
Regarding `CCS(=O)(=O)Nc1ccc(CCNC(=O)c2ccc(O)c3[nH]c(-c4ccc(F)cc4)nc23)cc1` [Compound 116], the pIC50 was 8.52.
For `CC(=O)Nc1ccc(CCNC(=O)c2ccc(O)c3[nH]c(-c4ccc(F)cc4)nc23)cc1` [Compound 117], the pIC50 is 7.52.
Take `CN1CCN(CCNC(=O)c2ccc(O)c3[nH]c(-c4ccc(F)cc4)nc23)CC1` [Compound 118]: the pIC50 is less than 5.30.
